From paper PMC11062906 (Nature, 2024)
“Also recorded” adds a separate entry of the source.

Columns and labels:
BmGr9 [1] = target: T1, BmGr9 (Bombyx mori, UniProt B3GTD7); assay: Cell-based GCaMP calcium flux assay, wild-type BmGr9
BmGr9 [2] = target: T1, BmGr9; settings: electrophysiology; ref Sato et al. PNAS, 2011; cited from earlier work
[3] = tested on: BmGr9 Q443, F444, and Q445 mutants; assay: GCaMP assay, L-sorbose on BmGr9 Q443, F444 and Q445 mutants; format: cell-based, Bombyx mori; settings: author rebuttal
BmGr9 [4] = target: T1, BmGr9; assay: Intrinsic tryptophan fluorescence of detergent-solubilized purified BmGr9; format: binding; settings: purified BmGr9 in digitonin, n = 4, 95% CI in parentheses

T1 sequence (B3GTD7 entry or part of it): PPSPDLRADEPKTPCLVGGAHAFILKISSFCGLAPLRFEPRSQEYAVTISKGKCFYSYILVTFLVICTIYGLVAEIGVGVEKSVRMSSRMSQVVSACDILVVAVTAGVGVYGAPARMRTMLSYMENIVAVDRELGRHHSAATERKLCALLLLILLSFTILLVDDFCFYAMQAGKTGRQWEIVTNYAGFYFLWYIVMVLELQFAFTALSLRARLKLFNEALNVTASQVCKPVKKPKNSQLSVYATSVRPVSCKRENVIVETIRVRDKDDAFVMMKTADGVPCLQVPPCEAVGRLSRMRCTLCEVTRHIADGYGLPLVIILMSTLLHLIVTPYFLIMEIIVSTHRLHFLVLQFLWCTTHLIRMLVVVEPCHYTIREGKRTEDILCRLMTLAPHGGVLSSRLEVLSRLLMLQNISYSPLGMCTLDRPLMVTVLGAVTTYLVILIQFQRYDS

Structure (SMILES): O=C(CO)[C@@H](O)[C@H](O)[C@@H](O)CO [L-sorbose]
- Activation of BmGr9 (change in fluorescence) by sweet compound (BmGr9 [1]; 100 mM sweet compound, HEK293 cells with BmGr9 plus GCaMP vs GCaMP only): not statistically different than GCaMP alone; also recorded: did not activate BmGr9 significantly
- maximum activity in dose-response (BmGr9 [1]; titration, n = 5, vs GCaMP-only control wells): less than control wells with GCaMP only
- activation of BmGr9 in oocytes (BmGr9 [2]): not to activate
- activation of BmGr9 mutants by L-sorbose [3]: does not appear that L-sorbose can activate any of these BmGr9 mutants
- Kd (BmGr9 [4]; KD (apparent affinity, tryptophan fluorescence)): 63 mM
- KD (apparent affinity, tryptophan fluorescence) (BmGr9 [4]): affinity close to that of D-fructose
